# Measured values from patent US20080103205A1, “Pesticidal compositions and methods of use” (priority 2006, published 2008).
# Where two headings read alike, the source gives them in different places.
# Experiments:
# Caenorhabditis elegans = experiment: Toxicity test, adult Caenorhabditis elegans, 96 well micro plate; type: in vivo; details: for mortality at 50 ppm / mortality at 100 ppm / mortality at 200 ppm / mortality at 300 ppm / mortality at 400 ppm: Caenorhabditis elegans
# Procedure: (§1) Methodology: Toxicity tests were conducted using J2 juveniles of Meloidogyne incognita adult Caenorhabditis elegans collected from nematode-infested tomato plant roots and culture Petri plates, respectively. Test concentrations of 50, 100, 200, 300, or 400 ppm were prepared in 0.2% dimethylsulfoxide (DMSO) in tap water. Aliquots (300 microliters (ul)) were applied to a 96 well micro plate and a 20 ul aqueous solution containing nematodes was added. The number of nematodes in 20 ul ranged from 17 to 30. Micro plates were sealed with Parafilm™ and incubated at room temperature. Similar tests conducted with 0.2% DMSO in tap water served as controls. Nematode mortality was checked at 24, 48, 72, 120, and 168 hr after incubation. Nematodes that were motionless for 30 sec when observed under a stereomicroscope were considered paralyzed and included in mortality counts. Each concentration was replicated five times and mean percent mortality was calculated after correcting for control mortality using Abbott's formula.
# (§2) Data Analysis: Mortality data were analyzed using PROC PROBIT (SAS) program and LC50 values were estimated.
# M. incognita = experiment: Initial petri dish toxicity assay, M. incognita; type: in vivo; details: Meloidogyne incognita; 100 ppm for 24 hr
# Source text: (§3) The stilbene nucleus is a simple chemical scaffold, and excellent gains in potency can be envisioned from appropriate chemical modification. In addition, other compounds having a similar mode of action have been described, including NPPB, IAA-94, and 9-AC (FIGS. 1-3). This Example 1 describes further toxicity studies with these compounds.
# Drosophila melanogaster = experiment: Toxicity against adult Drosophila melanogaster, sugar solution feeding; type: in vivo
# Procedure: Toxicity tests were conducted using mixed sex adults of D. melanogaster maintained on artificial diet in the department of entomology, Virginia Tech. Test concentrations of 6.25, 12.5, 25, 50 or 100 ppm were prepared in 0.2% dimethyl sulfoxide (DMSO) for DIDS, 9-AC, NPPB, and IAA-94. The above final concentrations were obtained after mixing them in 10 ml of 10% sugar solution. Similar preparations with 0.2% DMSO alone served as controls. One end of a cotton wick was dipped in 0.5 ml of sugar solution and placed on the glass vial containing 10 adult flies of mixed sex. Each concentration of test chemical had 5 replications. Mortality counts of flies were taken 24, 48, and 72 hrs after treatment. Insects without movement upon probing were considered dead. LC50 values and confidence intervals for each chemical were estimated using POLO PLUS software program. The data provided in Tables 3-A and 3-B below confirm that AT blockers are toxic to insects in acute exposures.
# H. bacteriophora = experiment: Initial petri dish toxicity assay / preliminary studies, H. bacteriophora; type: in vivo, Heterorhabditis bacteriophora; details: initial petri dish assays / preliminary studies
# Source text: as §3
# This broad cross resistance supports a role for AT blockers in the action of these compounds.
# Meloidogyne incognita = experiment: Toxicity test, J2 juveniles of Meloidogyne incognita, 96 well micro plate; type: in vivo; details: for mortality at 50 ppm / mortality at 100 ppm / mortality at 200 ppm / mortality at 300 ppm / mortality at 400 ppm: Meloidogyne incognita
# Procedure: as §1, §2
# [1] = 24 hr, read-out: Corrected Mortality (%)
# [2] = 48 hr, read-out: Corrected Mortality (%)
# [3] = 72 hr, read-out: Corrected Mortality (%)
# [4] = 120 hr, read-out: Corrected Mortality (%)
# [5] = 120 hr, read-out: Mortality (%)
# [6] = 168 hr, read-out: Corrected Mortality (%)
# [7] = 168 hr, read-out: Mortality (%)
structure (smiles),measurement,setting,value
"O=S(=O)(O)c1cc(N=C=S)ccc1/C=C/c1ccc(N=C=S)cc1S(=O)(=O)O [DIDS, trans-4,4′-diisothiocyanatostilbene-2,2′-disulfonic acid, reference compound]",mortality at 50 ppm,Caenorhabditis elegans; [1],14%
same,mortality at 50 ppm,"Caenorhabditis elegans; 24 hr, read-out: Mortality (%)",16%
same,mortality at 50 ppm,Caenorhabditis elegans; [2],34%
same,mortality at 50 ppm,"Caenorhabditis elegans; 48 hr, read-out: Mortality (%)",36%
same,mortality at 50 ppm,Caenorhabditis elegans; [3],56%
same,mortality at 50 ppm,"Caenorhabditis elegans; 72 hr, read-out: Mortality (%)",58%
same,mortality at 50 ppm,Caenorhabditis elegans; [4],74%
same,mortality at 50 ppm,Caenorhabditis elegans; [5],76%
same,mortality at 50 ppm,Caenorhabditis elegans; [6],98%
same,mortality at 50 ppm,Caenorhabditis elegans; [7],98%
same,mortality at 100 ppm,Caenorhabditis elegans; [1],18%
same,mortality at 100 ppm,"Caenorhabditis elegans; 24 hr, read-out: Mortality (%)",20%
same,mortality at 100 ppm,Caenorhabditis elegans; [2],43%
same,mortality at 100 ppm,"Caenorhabditis elegans; 48 hr, read-out: Mortality (%)",45%
same,mortality at 100 ppm,Caenorhabditis elegans; [3],68%
same,mortality at 100 ppm,"Caenorhabditis elegans; 72 hr, read-out: Mortality (%)",69%
same,mortality at 100 ppm,Caenorhabditis elegans; [4],88%
same,mortality at 100 ppm,Caenorhabditis elegans; [5],89%
same,mortality at 100 ppm,Caenorhabditis elegans; [6],100%
same,mortality at 100 ppm,Caenorhabditis elegans; [7],100%
same,mortality at 200 ppm,Caenorhabditis elegans; [1],22%
same,mortality at 200 ppm,"Caenorhabditis elegans; 24 hr, read-out: Mortality (%)",24%
same,mortality at 200 ppm,Caenorhabditis elegans; [2],44%
same,mortality at 200 ppm,"Caenorhabditis elegans; 48 hr, read-out: Mortality (%)",46%
same,mortality at 200 ppm,Caenorhabditis elegans; [3],77%
same,mortality at 200 ppm,"Caenorhabditis elegans; 72 hr, read-out: Mortality (%)",77%
same,mortality at 200 ppm,Caenorhabditis elegans; [4],97%
same,mortality at 200 ppm,Caenorhabditis elegans; [5],97%
same,mortality at 200 ppm,Caenorhabditis elegans; [6],100%
same,mortality at 200 ppm,Caenorhabditis elegans; [7],100%
same,mortality at 300 ppm,Caenorhabditis elegans; [1],20%
same,mortality at 300 ppm,"Caenorhabditis elegans; 24 hr, read-out: Mortality (%)",22%
same,mortality at 300 ppm,Caenorhabditis elegans; [2],52%
same,mortality at 300 ppm,"Caenorhabditis elegans; 48 hr, read-out: Mortality (%)",53%
same,mortality at 300 ppm,Caenorhabditis elegans; [3],81%
same,mortality at 300 ppm,"Caenorhabditis elegans; 72 hr, read-out: Mortality (%)",83%
same,mortality at 300 ppm,Caenorhabditis elegans; [4],100%
same,mortality at 300 ppm,Caenorhabditis elegans; [5],99%
same,mortality at 300 ppm,Caenorhabditis elegans; [6],100%
same,mortality at 300 ppm,Caenorhabditis elegans; [7],100%
same,mortality at 400 ppm,Caenorhabditis elegans; [1],23%
same,mortality at 400 ppm,"Caenorhabditis elegans; 24 hr, read-out: Mortality (%)",25%
same,mortality at 400 ppm,Caenorhabditis elegans; [2],58%
same,mortality at 400 ppm,"Caenorhabditis elegans; 48 hr, read-out: Mortality (%)",59%
same,mortality at 400 ppm,Caenorhabditis elegans; [3],90%
same,mortality at 400 ppm,"Caenorhabditis elegans; 72 hr, read-out: Mortality (%)",90%
same,mortality at 400 ppm,Caenorhabditis elegans; [4],100%
same,mortality at 400 ppm,Caenorhabditis elegans; [5],100%
same,mortality at 400 ppm,Caenorhabditis elegans; [6],100%
same,mortality at 400 ppm,Caenorhabditis elegans; [7],100%
same,LC50 (ppm),Caenorhabditis elegans; Day 2,237 ppm
same,LC50 (ppm),Caenorhabditis elegans; Day 3,38 ppm
same,LC50 (ppm),Caenorhabditis elegans; Day 5,27 ppm
same,LC50 (ppm),Caenorhabditis elegans; Day 7,3 ppm
same,mortality at 100 ppm,M. incognita,20%
same,LC50 (ppm),Drosophila melanogaster; 48 hr,125.86 ppm
same,LC50 (ppm),Drosophila melanogaster; 72 hr,72.82 ppm
same,"paralytic/lethal effect, sensitivity",H. bacteriophora,less sensitive
same,LC50 (ppm),Meloidogyne incognita; Day 2,356 ppm
same,LC50 (ppm),Meloidogyne incognita; Day 3,36 ppm
same,LC50 (ppm),Meloidogyne incognita; Day 5,20 ppm
same,LC50 (ppm),Meloidogyne incognita; Day 7,4 ppm
same,mortality at 50 ppm,Meloidogyne incognita; [1],9%
same,mortality at 50 ppm,"Meloidogyne incognita; 24 hr, read-out: Mortality (%)",11%
same,mortality at 50 ppm,Meloidogyne incognita; [2],36%
same,mortality at 50 ppm,"Meloidogyne incognita; 48 hr, read-out: Mortality (%)",39%
same,mortality at 50 ppm,Meloidogyne incognita; [3],56%
same,mortality at 50 ppm,"Meloidogyne incognita; 72 hr, read-out: Mortality (%)",59%
same,mortality at 50 ppm,Meloidogyne incognita; [4],73%
same,mortality at 50 ppm,Meloidogyne incognita; [5],75%
same,mortality at 50 ppm,Meloidogyne incognita; [6],98%
same,mortality at 50 ppm,Meloidogyne incognita; [7],98%
same,mortality at 100 ppm,Meloidogyne incognita; [1],16%
same,mortality at 100 ppm,"Meloidogyne incognita; 24 hr, read-out: Mortality (%)",18%
same,mortality at 100 ppm,Meloidogyne incognita; [2],39%
same,mortality at 100 ppm,"Meloidogyne incognita; 48 hr, read-out: Mortality (%)",41%
same,mortality at 100 ppm,Meloidogyne incognita; [3],61%
same,mortality at 100 ppm,"Meloidogyne incognita; 72 hr, read-out: Mortality (%)",64%
same,mortality at 100 ppm,Meloidogyne incognita; [4],84%
same,mortality at 100 ppm,Meloidogyne incognita; [5],85%
same,mortality at 100 ppm,Meloidogyne incognita; [6],99%
same,mortality at 100 ppm,Meloidogyne incognita; [7],99%
same,mortality at 200 ppm,Meloidogyne incognita; [1],19%
same,mortality at 200 ppm,"Meloidogyne incognita; 24 hr, read-out: Mortality (%)",21%
same,mortality at 200 ppm,Meloidogyne incognita; [2],43%
same,mortality at 200 ppm,"Meloidogyne incognita; 48 hr, read-out: Mortality (%)",45%
same,mortality at 200 ppm,Meloidogyne incognita; [3],67%
same,mortality at 200 ppm,"Meloidogyne incognita; 72 hr, read-out: Mortality (%)",69%
same,mortality at 200 ppm,Meloidogyne incognita; [4],90%
same,mortality at 200 ppm,Meloidogyne incognita; [5],91%
same,mortality at 200 ppm,Meloidogyne incognita; [6],100%
same,mortality at 200 ppm,Meloidogyne incognita; [7],100%
same,mortality at 300 ppm,Meloidogyne incognita; [1],20%
same,mortality at 300 ppm,"Meloidogyne incognita; 24 hr, read-out: Mortality (%)",22%
same,mortality at 300 ppm,Meloidogyne incognita; [2],46%
same,mortality at 300 ppm,"Meloidogyne incognita; 48 hr, read-out: Mortality (%)",48%
same,mortality at 300 ppm,Meloidogyne incognita; [3],77%
same,mortality at 300 ppm,"Meloidogyne incognita; 72 hr, read-out: Mortality (%)",79%
same,mortality at 300 ppm,Meloidogyne incognita; [4],96%
same,mortality at 300 ppm,Meloidogyne incognita; [5],96%
same,mortality at 300 ppm,Meloidogyne incognita; [6],100%
same,mortality at 300 ppm,Meloidogyne incognita; [7],100%
same,mortality at 400 ppm,Meloidogyne incognita; [1],22%
same,mortality at 400 ppm,"Meloidogyne incognita; 24 hr, read-out: Mortality (%)",24%
same,mortality at 400 ppm,Meloidogyne incognita; [2],55%
same,mortality at 400 ppm,"Meloidogyne incognita; 48 hr, read-out: Mortality (%)",57%
same,mortality at 400 ppm,Meloidogyne incognita; [3],78%
same,mortality at 400 ppm,"Meloidogyne incognita; 72 hr, read-out: Mortality (%)",89%
same,mortality at 400 ppm,Meloidogyne incognita; [4],100%
same,mortality at 400 ppm,Meloidogyne incognita; [5],100%
same,mortality at 400 ppm,Meloidogyne incognita; [6],100%
same,mortality at 400 ppm,Meloidogyne incognita; [7],100%
